Data from patent publication US6844294B2, “Synergistic herbicidal compositions comprising herbicides from the benzoylcyclohexanedione group for use in rice crops” (Aventis CropScience GmbH, priority 2001, dated 2005).

What was measured:
Format in all cases: in vivo
CYPSE = experiment: Herbicidal action on CYPSE, visual scoring on a percentage scale vs untreated control
ECHOR = experiment: Herbicidal action on ECHOR, visual scoring on a percentage scale vs untreated control; conditions: Example B.XII, dosage 25 g ai/ha
Excerpt: (§1) Seeds or root segments of monocotyledonous and dicotyledonous harmful plants are placed in sandy loam in pots and covered with soil. In the case of spray application, the compositions formulated as concentrated aqueous solutions, wettable powders or emulsion concentrates, are then applied to the surface of the covering soil as aqueous solution, suspension or emulsion, respectively, at an application rate of 600 to 800 l of water per ha (converted) in a variety of dosages. Immediately to a few days after the application, the test containers are flooded with water up to a depth of 30 mm above the soil surface. In the case of submerged application, in contrast, the soil in the closed test container is already covered with paddy water up to a depth of 30 mm at the time of application. Here, the formulated active ingredients are added directly to the paddy water, for example in the form of granules. […] When using suitable low dosages, the values observed in the experiments show an effect of the combinations which exceed the expected values calculated using Colby's formula.
(§2) The herbicidal efficacy of the active ingredients or active ingredient mixtures was scored visually by comparing the treated variants with untreated control variants. The damage and development of all aerial plant parts was recorded. […]

SEBEX Sesbania exaltata = experiment: Herbicidal action on SEBEX, visual scoring on a percentage scale vs untreated control
Excerpt: (§3) Seeds or root segments of monocotyledonous and dicotyledonous harmful plants are placed in sandy loam in pots and covered with soil. In the case of spray application, the compositions formulated as concentrated aqueous solutions, wettable powders or emulsion concentrates, are then applied to the surface of the covering soil as aqueous solution, suspension or emulsion, respectively, at an application rate of 600 to 800 l of water per ha (converted) in a variety of dosages. Immediately to a few days after the application, the test containers are flooded with water up to a depth of 30 mm above the soil surface. In the case of submerged application, in contrast, the soil in the closed test container is already covered with paddy water up to a depth of 30 mm at the time of application. Here, the formulated active ingredients are added directly to the paddy water, for example in the form of granules. After the treatment, the pots are placed in a greenhouse and kept under good growth conditions for the weeds. Visual scoring of the plant damage or the adverse effect on the emergence is carried out after the test plants have emerged after an experimental period of 3 to 4 weeks in comparison with untreated controls. […] Frequently, effects of the combinations according to the invention are observed which exceed the formal total of the effects when the herbicides are applied individually. When using suitable low dosages, the values observed in the experiments show an effect of the combinations which exceed the expected values calculated using Colby's formula.
(§4) The herbicidal efficacy of the active ingredients or active ingredient mixtures was scored visually by comparing the treated variants with untreated control variants. The damage and development of all aerial plant parts was recorded. Scoring was done on a percentage scale (100% action=all plants dead; 50% action=50% of the plants and green plant parts dead; 0% action=no discernible action=like untreated control plot).
(§5) Seeds or root segments of monocotyledonous and dicotyledonous weeds are placed in sandy loam in pots, covered with soil and grown in the greenhouse under good growth conditions (temperature, atmospheric humidity, water supply). Approximately three weeks after planting, the experimental plants are treated with the compositions according to the invention. In the case of spray application, the compositions according to the invention, which are formulated as wettable powders or emulsion concentrates, are sprayed onto the green plant parts in various dosages with an application rate of 600 to 800 l of water per ha (converted). Immediately to a few days after the application, the test containers are flooded with water up to a depth of 30 mm above the soil surface. In the case of submerged application, in contrast, the soil in the closed test container is already covered with paddy water up to a depth of 30 mm at the time of application. Here, the formulated active ingredients are added directly to the paddy water. After the experimental plants have remained in the greenhouse under optimal growth conditions for a further 3 to 4 weeks, the effect of the preparations is scored visually in comparison with untreated controls. […] When using suitable low dosages, the values observed in the experiments show an effect of the combinations which exceed the expected values calculated using Colby's formula. […]

SCPJU Scirpus juncoides = experiment: Herbicidal action on SCPJU, visual scoring on a percentage scale vs untreated control
Excerpt: as §3, §4
Seeds or root segments of monocotyledonous and dicotyledonous weeds are placed in sandy loam in pots, covered with soil and grown in the greenhouse under good growth conditions (temperature, atmospheric humidity, water supply). Approximately three weeks after planting, the experimental plants are treated with the compositions according to the invention. In the case of spray application, the compositions according to the invention, which are formulated as wettable powders or emulsion concentrates, are sprayed onto the green plant parts in various dosages with an application rate of 600 to 800 l of water per ha (converted). Immediately to a few days after the application, the test containers are flooded with water up to a depth of 30 mm above the soil surface. In the case of submerged application, in contrast, the soil in the closed test container is already covered with paddy water up to a depth of 30 mm at the time of application. Here, the formulated active ingredients are added directly to the paddy water. After the experimental plants have remained in the greenhouse under optimal growth conditions for a further 3 to 4 weeks, the effect of the preparations is scored visually in comparison with untreated controls. The compositions according to the invention also have an outstanding herbicidal action against a broad spectrum of economically important grass weeds and broad-leaved weeds when applied post-emergence. Frequently, effects of the combinations according to the invention are observed which exceed the formal total of the effects when the herbicides are applied individually. When using suitable low dosages, the values observed in the experiments show an effect of the combinations which exceed the expected values calculated using Colby's formula.
Crop plants were grown in the open on plots under natural field conditions, seeds or root segments of typical harmful plants having been planted and the natural weed flora being exploited. […]

SAGPY Sagittaria pygmaea = experiment: Herbicidal action on SAGPY, visual scoring on a percentage scale vs untreated control
Excerpt: as §1, with “granules. After the treatment, the pots are placed in a greenhouse and kept under good growth conditions for the weeds.” for “granules.”
as §2
Seeds or root segments of monocotyledonous and dicotyledonous weeds are placed in sandy loam in pots, covered with soil and grown in the greenhouse under good growth conditions (temperature, atmospheric humidity, water supply). […] After the experimental plants have remained in the greenhouse under optimal growth conditions for a further 3 to 4 weeks, the effect of the preparations is scored visually in comparison with untreated controls. […] When using suitable low dosages, the values observed in the experiments show an effect of the combinations which exceed the expected values calculated using Colby's formula. […]

PHBPU = experiment: Herbicidal action on PHBPU, visual scoring on a percentage scale vs untreated control
Excerpt: as §3, §4, §5

ECHCG = experiment: Herbicidal action on ECHCG, visual scoring on a percentage scale vs untreated control
Excerpt: as §1, §2

MOOVA = experiment: Herbicidal action on MOOVA, visual scoring on a percentage scale vs untreated control
Excerpt: as §1, §2

CHEAL = experiment: Herbicidal action on CHEAL, visual scoring on a percentage scale vs untreated control
Excerpt: as §1, §2

[1] = Example B.IV, dosage 20 g ai/ha
[2] = Example B.XIII, dosage 22 g ai/ha
[3] = Example B.X, dosage 1.8 g ai/ha
[4] = Example B.IX, dosage 187 g ai/ha
[5] = Example B.XV, dosage 4.3 g ai/ha

Compound: CC1(C)CON(Cc2ccccc2Cl)C1=O [Compound B3.1, clomazone]
- found (herbicidal action) (CYPSE; Example B.XII, dosage 50 g ai/ha): 0%
- found (herbicidal action) (ECHOR): 30%

Compound: COc1cc(OC)nc(NC(=O)NS(=O)(=O)Cc2ccccc2C(=O)O)n1 [Compound B2.1, bensulfuron]
- found (herbicidal action) (CYPSE; Example B.I, dosage 10 g ai/ha): 68%
- found (herbicidal action) (SEBEX Sesbania exaltata; Example B.I, dosage 20 g ai/ha): 45%

Compound: COC(=O)c1c(Cl)nn(C)c1S(=O)(=O)NC(=O)Nc1nc(OC)cc(OC)n1 [Compound B2.5, halosulfuron-methyl]
- found (herbicidal action) (SCPJU Scirpus juncoides; Example B.XI, dosage 15 g ai/ha): 0%
- found (herbicidal action) (SAGPY Sagittaria pygmaea; Example B.XI, dosage 7.5 g ai/ha): 0%

Compound: CCC(CC)Nc1c([N+](=O)[O-])cc(C)c(C)c1[N+](=O)[O-] [Compound B7.1, pendimethalin]
- found (herbicidal action) (PHBPU; Example B.V, dosage 100 g ai/ha): 75%
- found (herbicidal action) (ECHCG; Example B.V, dosage 200 g ai/ha): 78%

Compound: O=C(O)c1c(Cl)ccc2cc(Cl)cnc12 [Compound B9.1, quinclorac]
- found (herbicidal action) (SEBEX Sesbania exaltata; Example B.VI, dosage 5 g ai/ha): 0%
- found (herbicidal action) (PHBPU; Example B.VI, dosage 10 g ai/ha): 78%

Compound: CCOC(=O)C(C)Oc1ccc(Oc2nc3ccc(Cl)cc3o2)cc1 (stereo not shown) [Compound B4.2, fenoxaprop-ethyl]
- found (herbicidal action) (SEBEX Sesbania exaltata; [1]): 0%
- found (herbicidal action) (PHBPU; [1]): 0%

Compound: CP(=O)(O)CCC(N)C(=O)O (stereo not shown) [Compound B10.1, glufosinate]
- found (herbicidal action) (SEBEX Sesbania exaltata; Example B.VII, dosage 100 g ai/ha): 5%
- found (herbicidal action) (ECHCG; Example B.VII, dosage 50 g ai/ha): 0%

Compound: CCCCOC(=O)[C@@H](C)Oc1ccc(Oc2ccc(C#N)cc2F)cc1 [Compound B4.1, cyhalofop-butyl]
- found (herbicidal action) (CYPSE; [2]): 0%
- found (herbicidal action) (SCPJU Scirpus juncoides; [2]): 0%

Compound: COc1cc(OC)nc(Oc2cccc(Oc3nc(OC)cc(OC)n3)c2C(=O)O)n1 [Compound B2.2, bispyribac-sodium]
- found (herbicidal action) (SCPJU Scirpus juncoides; [3]): 0%
- found (herbicidal action) (MOOVA; [3]): 0%

Compound: O=C(O)CNCP(=O)(O)O [Compound B11.1, glyphosate]
- found (herbicidal action) (CHEAL; Example B.VIII, dosage 100 g ai/ha): 0%

Compound: CN(C(=O)COc1nc2ccccc2s1)c1ccccc1 [Compound B5.1, mefenacet]
- found (herbicidal action) (SCPJU Scirpus juncoides; Example B.XIV, dosage 125 g ai/ha): 0%
- found (herbicidal action) (SAGPY Sagittaria pygmaea; Example B.XIV, dosage 63 g ai/ha): 0%

Compound: CCN(CC)C(=O)SCc1ccc(Cl)cc1 [Compound B1.2, thiobencarb]
- found (herbicidal action) (SCPJU Scirpus juncoides; [4]): 20%
- found (herbicidal action) (SAGPY Sagittaria pygmaea; [4]): 0%

Compound: CCC(=O)Nc1ccc(Cl)c(Cl)c1 [Compound B8.1, propanil]
- found (herbicidal action) (SCPJU Scirpus juncoides; Example B.XVI, dosage 375 g ai/ha): 0%
- found (herbicidal action) (MOOVA; Example B.XVI, dosage 187 g ai/ha): 0%

Compound: CC1=C(c2ccccc2)C(=O)N(C(C)(C)c2cc(Cl)cc(Cl)c2)CO1 [Compound B5.2, oxaziclomefone]
- found (herbicidal action) (CYPSE; [5]): 0%
- found (herbicidal action) (SCPJU Scirpus juncoides; [5]): 0%

Compound: COc1cc(OC)n2nc(S(=O)(=O)Nc3c(Cl)ccc(C)c3Cl)nc2n1 [Compound B2.13, metosulam]
- found (herbicidal action) (SEBEX Sesbania exaltata; B.III, dosage 2.5 g ai/ha): 30%
- found (herbicidal action) (PHBPU; B.III, dosage 2.5 g ai/ha): 85%

Compound: CCc1cnc(C2=NC(C)(C(C)C)C(=O)N2)c(C(=O)O)c1 (stereo not shown) [Compound B2.9, imazethapyr]
- found (herbicidal action) (PHBPU; Example B.II, dosage 5 g ai/ha): 5%
- found (herbicidal action) (CHEAL; Example B.II, dosage 10 g ai/ha): 5%
